Columns and labels:
[1] = target: Serine/threonine-protein kinase DCLK1 (Homo sapiens) (UniProt O15075); conditions: Compound concentration 1000.0 nM
[2] = target: Serine/threonine-protein kinase 17B (Homo sapiens) (UniProt O94768); conditions: Compound concentration 1000.0 nM
[3] = target: Serine/threonine-protein kinase PAK 1 (Homo sapiens) (UniProt Q13153); conditions: Compound concentration 1000.0 nM
[4] = target: Focal adhesion kinase 1 (Homo sapiens) (UniProt Q05397); conditions: Compound concentration 1000.0 nM
[5] = target: Ephrin type-A receptor 4 (Homo sapiens) (UniProt P54764); conditions: Compound concentration 1000.0 nM
[6] = test system: Epidermal growth factor receptor (Homo sapiens), P00533 [UNDEFINED MUTATION]; conditions: Compound concentration 1000.0 nM
[7] = test system: Tyrosine-protein kinase ABL1 (Homo sapiens), P00519 [Q252H]; conditions: Compound concentration 1000.0 nM
[8] = target: Protein kinase C epsilon type (Homo sapiens) (UniProt Q02156); conditions: Compound concentration 1000.0 nM
[9] = target: Serine/threonine-protein kinase DCLK2 (Homo sapiens) (UniProt Q8N568); conditions: Compound concentration 1000.0 nM
[10] = target: STE20/SPS1-related proline-alanine-rich protein kinase (Homo sapiens) (UniProt Q9UEW8); conditions: Compound concentration 1000.0 nM
[11] = target: Transient receptor potential cation channel subfamily M member 6 (Homo sapiens) (UniProt Q9BX84); conditions: Compound concentration 1000.0 nM
[12] = target: Calcium/calmodulin-dependent protein kinase type 1D (Homo sapiens) (UniProt Q8IU85); conditions: Compound concentration 1000.0 nM
[13] = target: Mast/stem cell growth factor receptor Kit (Homo sapiens) (UniProt P10721); conditions: Compound concentration 1000.0 nM
[14] = target: Tyrosine-protein kinase Fer (Homo sapiens) (UniProt P16591); conditions: Compound concentration 1000.0 nM
[15] = target: Ribosomal protein S6 kinase beta-1 (Homo sapiens) (UniProt P23443); conditions: Compound concentration 1000.0 nM
[16] = target: Serine/threonine-protein kinase ICK (Homo sapiens) (UniProt Q9UPZ9); conditions: Compound concentration 1000.0 nM
[17] = target: MAP kinase-activated protein kinase 2 (Homo sapiens) (UniProt P49137); conditions: Compound concentration 1000.0 nM
[18] = target: Megakaryocyte-associated tyrosine-protein kinase (Homo sapiens) (UniProt P42679); conditions: Compound concentration 1000.0 nM
[19] = target: Serine/threonine-protein kinase STK11 (Homo sapiens) (UniProt Q15831); conditions: Compound concentration 1000.0 nM
[20] = target: Ribosomal protein S6 kinase alpha-6 (Homo sapiens) (UniProt Q9UK32); conditions: Compound concentration 1000.0 nM
[21] = target: Dual serine/threonine and tyrosine protein kinase (Homo sapiens) (UniProt Q6XUX3); conditions: Compound concentration 1000.0 nM
[22] = target: Phosphatidylinositol 4,5-bisphosphate 3-kinase catalytic subunit beta isoform (Homo sapiens) (UniProt P42338); conditions: Compound concentration 1000.0 nM
[23] = target: Receptor tyrosine-protein kinase erbB-4 (Homo sapiens) (UniProt Q15303); conditions: Compound concentration 1000.0 nM
[24] = target: Serine/threonine-protein kinase 32B (Homo sapiens) (UniProt Q9NY57); conditions: Compound concentration 1000.0 nM
[25] = target: Fibroblast growth factor receptor 1 (Homo sapiens) (UniProt P11362); conditions: Compound concentration 1000.0 nM
[26] = target: Receptor-type tyrosine-protein kinase FLT3 (Homo sapiens) (UniProt P36888); conditions: Compound concentration 1000.0 nM
[27] = target: Serine/threonine-protein kinase PLK3 (Homo sapiens) (UniProt Q9H4B4); conditions: Compound concentration 1000.0 nM
[28] = target: Homeodomain-interacting protein kinase 2 (Homo sapiens) (UniProt Q9H2X6); conditions: Compound concentration 1000.0 nM
[29] = target: cAMP-dependent protein kinase catalytic subunit beta (Homo sapiens) (UniProt P22694); conditions: Compound concentration 1000.0 nM
[30] = target: Mitogen-activated protein kinase kinase kinase 14 (Homo sapiens) (UniProt Q99558); conditions: Compound concentration 1000.0 nM
[31] = target: Dual specificity protein kinase CLK4 (Homo sapiens) (UniProt Q9HAZ1); conditions: Compound concentration 1000.0 nM
[32] = target: Ribosomal protein S6 kinase alpha-1 (Homo sapiens) (UniProt Q15418); conditions: Compound concentration 1000.0 nM
[33] = test system: Receptor-type tyrosine-protein kinase FLT3 (Homo sapiens), P36888 [UNDEFINED MUTATION]; conditions: Compound concentration 1000.0 nM
[34] = target: Receptor tyrosine-protein kinase erbB-2 (Homo sapiens) (UniProt P04626); conditions: Compound concentration 1000.0 nM
[35] = target: Serine/threonine-protein kinase pim-3 (Homo sapiens) (UniProt Q86V86); conditions: Compound concentration 1000.0 nM
[36] = target: Serine/threonine-protein kinase 32A (Homo sapiens) (UniProt Q8WU08); conditions: Compound concentration 1000.0 nM
[37] = target: Serine/threonine-protein kinase ULK1 (Homo sapiens) (UniProt O75385); conditions: Compound concentration 1000.0 nM
[38] = target: Ephrin type-A receptor 2 (Homo sapiens) (UniProt P29317); conditions: Compound concentration 1000.0 nM
[39] = target: Interleukin-1 receptor-associated kinase 1 (Homo sapiens) (UniProt P51617); conditions: Compound concentration 1000.0 nM
[40] = test system: Tyrosine-protein kinase ABL1 (Homo sapiens), P00519 [H396P]; conditions: Compound concentration 1000.0 nM
[41] = target: 5-hydroxytryptamine receptor 6 (Homo sapiens) (UniProt P50406); conditions: Compound concentration 10.0 uM
[42] = test system: Tyrosine-protein kinase ABL1 (Homo sapiens), P00519 [T315I]; conditions: Compound concentration 1000.0 nM
[43] = target: Tyrosine-protein kinase ITK/TSK (Homo sapiens) (UniProt Q08881); conditions: Compound concentration 1000.0 nM
[44] = target: Proto-oncogene tyrosine-protein kinase ROS (Homo sapiens) (UniProt P08922); conditions: Compound concentration 1000.0 nM
[45] = target: Leukocyte tyrosine kinase receptor (Homo sapiens) (UniProt P29376); conditions: Compound concentration 1000.0 nM

Ephrin type-A receptor 4 (Homo sapiens), sequence (P54764 whole entry): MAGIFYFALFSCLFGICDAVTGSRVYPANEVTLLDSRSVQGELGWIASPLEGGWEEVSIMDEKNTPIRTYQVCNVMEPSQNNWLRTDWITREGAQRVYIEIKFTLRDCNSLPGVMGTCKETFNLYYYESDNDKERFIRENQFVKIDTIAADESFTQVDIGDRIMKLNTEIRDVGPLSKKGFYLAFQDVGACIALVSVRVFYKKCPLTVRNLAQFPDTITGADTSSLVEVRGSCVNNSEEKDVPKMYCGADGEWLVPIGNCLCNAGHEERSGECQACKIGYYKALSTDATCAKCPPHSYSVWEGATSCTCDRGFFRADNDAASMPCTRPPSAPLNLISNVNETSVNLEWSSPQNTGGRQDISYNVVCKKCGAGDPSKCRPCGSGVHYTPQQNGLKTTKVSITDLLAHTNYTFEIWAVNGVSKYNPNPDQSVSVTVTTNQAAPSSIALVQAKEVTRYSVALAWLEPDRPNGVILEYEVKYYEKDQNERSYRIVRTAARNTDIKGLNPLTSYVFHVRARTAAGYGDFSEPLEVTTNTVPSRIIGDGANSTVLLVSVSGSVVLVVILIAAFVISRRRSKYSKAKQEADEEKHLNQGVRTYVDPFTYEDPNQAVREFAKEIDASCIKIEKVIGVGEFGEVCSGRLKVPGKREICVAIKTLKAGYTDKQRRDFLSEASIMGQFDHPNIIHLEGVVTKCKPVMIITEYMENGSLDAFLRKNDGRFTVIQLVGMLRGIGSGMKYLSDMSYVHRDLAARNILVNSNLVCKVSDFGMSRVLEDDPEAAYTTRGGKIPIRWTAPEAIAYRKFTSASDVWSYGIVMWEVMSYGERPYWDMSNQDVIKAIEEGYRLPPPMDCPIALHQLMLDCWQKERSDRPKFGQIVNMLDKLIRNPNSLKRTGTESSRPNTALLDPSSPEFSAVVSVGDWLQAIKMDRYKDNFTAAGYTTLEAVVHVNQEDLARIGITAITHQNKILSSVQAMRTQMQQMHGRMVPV
Dual specificity protein kinase CLK4 (Homo sapiens), sequence (Q9HAZ1 whole entry, looked up): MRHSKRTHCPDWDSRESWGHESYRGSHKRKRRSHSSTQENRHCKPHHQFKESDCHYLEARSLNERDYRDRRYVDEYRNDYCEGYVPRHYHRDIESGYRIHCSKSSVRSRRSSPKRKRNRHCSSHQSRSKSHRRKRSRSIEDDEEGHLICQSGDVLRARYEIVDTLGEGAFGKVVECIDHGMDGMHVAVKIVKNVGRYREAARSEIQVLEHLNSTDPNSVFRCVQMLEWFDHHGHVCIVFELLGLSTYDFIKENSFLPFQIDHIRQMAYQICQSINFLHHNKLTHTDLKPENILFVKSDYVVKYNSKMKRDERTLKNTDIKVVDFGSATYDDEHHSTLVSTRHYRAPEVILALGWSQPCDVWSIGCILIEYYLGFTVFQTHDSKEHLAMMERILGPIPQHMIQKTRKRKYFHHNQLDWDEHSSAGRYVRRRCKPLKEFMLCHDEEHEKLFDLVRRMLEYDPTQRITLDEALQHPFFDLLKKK
Proto-oncogene tyrosine-protein kinase ROS (Homo sapiens), sequence (P08922 whole entry): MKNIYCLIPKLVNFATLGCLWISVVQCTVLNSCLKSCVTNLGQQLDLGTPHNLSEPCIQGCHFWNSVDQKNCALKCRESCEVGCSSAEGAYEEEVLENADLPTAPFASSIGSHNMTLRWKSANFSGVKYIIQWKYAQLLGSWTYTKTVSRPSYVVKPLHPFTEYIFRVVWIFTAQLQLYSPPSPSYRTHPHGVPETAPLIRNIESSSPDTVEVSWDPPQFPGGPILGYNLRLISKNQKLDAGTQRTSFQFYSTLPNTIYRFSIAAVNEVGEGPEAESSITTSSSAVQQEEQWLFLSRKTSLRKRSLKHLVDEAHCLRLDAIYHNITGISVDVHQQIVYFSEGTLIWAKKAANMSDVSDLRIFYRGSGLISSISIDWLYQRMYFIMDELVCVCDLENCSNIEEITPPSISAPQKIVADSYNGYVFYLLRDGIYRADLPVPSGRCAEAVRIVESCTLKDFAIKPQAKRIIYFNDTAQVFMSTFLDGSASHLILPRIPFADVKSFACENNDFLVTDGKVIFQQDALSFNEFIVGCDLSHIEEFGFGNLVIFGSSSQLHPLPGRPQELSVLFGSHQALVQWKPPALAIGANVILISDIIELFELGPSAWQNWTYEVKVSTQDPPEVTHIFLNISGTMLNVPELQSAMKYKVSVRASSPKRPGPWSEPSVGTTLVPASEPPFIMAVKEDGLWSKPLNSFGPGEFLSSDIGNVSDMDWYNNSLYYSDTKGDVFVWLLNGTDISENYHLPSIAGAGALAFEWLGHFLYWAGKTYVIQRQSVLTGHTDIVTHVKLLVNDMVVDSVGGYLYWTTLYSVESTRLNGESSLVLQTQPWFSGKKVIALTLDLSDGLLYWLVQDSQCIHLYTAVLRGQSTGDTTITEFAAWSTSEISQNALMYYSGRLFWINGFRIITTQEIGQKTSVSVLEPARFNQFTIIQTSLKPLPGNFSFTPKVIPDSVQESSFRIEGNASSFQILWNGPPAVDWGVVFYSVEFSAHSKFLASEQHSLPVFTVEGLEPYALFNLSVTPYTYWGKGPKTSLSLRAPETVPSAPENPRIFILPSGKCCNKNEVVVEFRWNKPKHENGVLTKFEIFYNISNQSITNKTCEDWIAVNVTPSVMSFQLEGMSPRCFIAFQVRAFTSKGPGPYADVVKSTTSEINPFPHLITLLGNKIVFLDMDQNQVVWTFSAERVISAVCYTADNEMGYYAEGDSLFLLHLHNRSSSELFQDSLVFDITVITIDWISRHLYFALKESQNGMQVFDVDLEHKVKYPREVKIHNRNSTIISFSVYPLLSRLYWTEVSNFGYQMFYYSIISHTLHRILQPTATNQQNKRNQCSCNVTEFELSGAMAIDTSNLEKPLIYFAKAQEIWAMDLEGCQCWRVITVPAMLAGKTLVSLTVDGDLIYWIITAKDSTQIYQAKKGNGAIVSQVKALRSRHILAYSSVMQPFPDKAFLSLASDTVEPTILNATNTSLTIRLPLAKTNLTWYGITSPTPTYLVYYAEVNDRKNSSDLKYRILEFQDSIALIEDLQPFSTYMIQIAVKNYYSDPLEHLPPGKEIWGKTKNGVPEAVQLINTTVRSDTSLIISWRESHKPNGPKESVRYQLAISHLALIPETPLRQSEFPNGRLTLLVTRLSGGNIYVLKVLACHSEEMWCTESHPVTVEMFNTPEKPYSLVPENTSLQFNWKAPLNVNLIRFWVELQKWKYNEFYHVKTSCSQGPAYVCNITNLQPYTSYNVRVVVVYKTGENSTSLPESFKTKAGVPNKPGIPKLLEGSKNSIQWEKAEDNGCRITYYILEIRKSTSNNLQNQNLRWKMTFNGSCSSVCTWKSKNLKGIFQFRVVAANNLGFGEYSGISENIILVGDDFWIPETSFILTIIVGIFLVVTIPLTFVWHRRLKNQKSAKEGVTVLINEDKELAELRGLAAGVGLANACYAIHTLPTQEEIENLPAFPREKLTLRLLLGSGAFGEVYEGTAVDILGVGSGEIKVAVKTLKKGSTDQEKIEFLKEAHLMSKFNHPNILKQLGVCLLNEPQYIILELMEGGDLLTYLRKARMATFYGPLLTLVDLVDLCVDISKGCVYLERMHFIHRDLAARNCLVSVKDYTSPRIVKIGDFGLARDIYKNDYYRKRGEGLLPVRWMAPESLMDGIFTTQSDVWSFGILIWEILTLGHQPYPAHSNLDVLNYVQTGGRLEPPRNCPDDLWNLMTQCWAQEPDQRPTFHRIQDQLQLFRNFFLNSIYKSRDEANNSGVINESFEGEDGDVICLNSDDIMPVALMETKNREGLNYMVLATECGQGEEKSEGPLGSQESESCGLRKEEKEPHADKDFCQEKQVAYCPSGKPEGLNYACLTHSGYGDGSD
Protein kinase C epsilon type (Homo sapiens), sequence (Q02156 whole entry): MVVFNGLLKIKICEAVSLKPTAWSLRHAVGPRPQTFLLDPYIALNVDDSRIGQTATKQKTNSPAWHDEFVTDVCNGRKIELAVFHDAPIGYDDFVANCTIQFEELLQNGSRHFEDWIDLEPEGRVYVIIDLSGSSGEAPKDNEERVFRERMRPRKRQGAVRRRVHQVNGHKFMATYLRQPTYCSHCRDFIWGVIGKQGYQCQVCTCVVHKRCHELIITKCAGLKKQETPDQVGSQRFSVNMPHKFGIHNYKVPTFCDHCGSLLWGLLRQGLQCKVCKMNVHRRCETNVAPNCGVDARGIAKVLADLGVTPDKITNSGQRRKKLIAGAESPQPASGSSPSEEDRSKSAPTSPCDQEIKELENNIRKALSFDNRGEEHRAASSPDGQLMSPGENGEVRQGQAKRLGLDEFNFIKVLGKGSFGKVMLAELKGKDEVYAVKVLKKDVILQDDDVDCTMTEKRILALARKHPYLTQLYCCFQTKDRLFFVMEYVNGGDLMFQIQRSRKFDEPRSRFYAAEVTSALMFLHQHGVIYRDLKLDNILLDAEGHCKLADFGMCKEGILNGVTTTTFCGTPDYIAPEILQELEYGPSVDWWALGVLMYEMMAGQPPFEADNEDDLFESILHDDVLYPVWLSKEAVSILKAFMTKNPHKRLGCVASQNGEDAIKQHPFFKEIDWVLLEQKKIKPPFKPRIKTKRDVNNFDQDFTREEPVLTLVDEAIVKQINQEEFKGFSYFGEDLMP
Serine/threonine-protein kinase 32B (Homo sapiens), sequence (Q9NY57 whole entry): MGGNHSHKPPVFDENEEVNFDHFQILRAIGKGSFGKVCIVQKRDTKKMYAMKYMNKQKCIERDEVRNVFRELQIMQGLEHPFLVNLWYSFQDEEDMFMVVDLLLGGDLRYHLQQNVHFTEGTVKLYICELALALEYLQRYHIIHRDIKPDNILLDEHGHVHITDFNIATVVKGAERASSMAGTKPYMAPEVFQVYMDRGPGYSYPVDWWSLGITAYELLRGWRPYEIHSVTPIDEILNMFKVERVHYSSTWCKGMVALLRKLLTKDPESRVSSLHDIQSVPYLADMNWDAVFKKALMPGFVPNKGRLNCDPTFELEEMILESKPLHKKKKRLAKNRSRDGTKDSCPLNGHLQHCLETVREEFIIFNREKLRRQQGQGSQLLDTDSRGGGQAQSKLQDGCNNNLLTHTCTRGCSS

CCC(=O)N[C@@H]1CC[C@H](C(=O)N(C)c2ccc(-c3nc4ccccc4o3)cc2)C1 [BI 99990]
inactive: residual activity [1] 88% | residual activity [2] 99% | residual activity [3] 82% | residual activity [4] 100% | residual activity [5] 100% | residual activity [6] 75% | residual activity [7] 77% | residual activity [8] 93% | residual activity [9] 89% | residual activity [10] 73% | residual activity [11] 84% | residual activity [12] 100% | residual activity [13] 100% | residual activity [14] 99% | residual activity [15] 93% | residual activity [16] 92% | residual activity [17] 87% | residual activity [18] 100% | residual activity [19] 51% | residual activity [20] 84% | residual activity [21] 93% | residual activity [22] 100% | residual activity [23] 100% | residual activity [24] 71% | residual activity [25] 87% | residual activity [26] 89% | residual activity [27] 84% | residual activity [28] 100% | residual activity [29] 100% | residual activity [30] 100% | residual activity [31] 88% | residual activity [32] 100% | residual activity [33] 94% | residual activity [34] 100% | residual activity [35] 96% | residual activity [36] 100% | residual activity [37] 100% | residual activity [38] 94% | residual activity [39] 100% | inhibition [41] 10.1% | residual activity [42] 87% | residual activity [43] 100% | residual activity [44] 100% | residual activity [45] 93%
active: residual activity [40] 46%

CCC(=O)N[C@H]1CC[C@@H](C(=O)N(C)c2ccc(-c3nc4ccccc4o3)cc2)C1 [BI 99179]
inactive: residual activity [1] 100% | residual activity [2] 84% | residual activity [3] 82% | residual activity [4] 100% | residual activity [5] 79% | residual activity [6] 79% | residual activity [7] 72% | residual activity [8] 90% | residual activity [9] 98% | residual activity [10] 100% | residual activity [11] 76% | residual activity [12] 100% | residual activity [13] 94% | residual activity [14] 90% | residual activity [15] 99% | residual activity [16] 70% | residual activity [17] 97% | residual activity [18] 100% | residual activity [19] 100% | residual activity [20] 82% | residual activity [21] 87% | residual activity [22] 100% | residual activity [23] 100% | residual activity [24] 98% | residual activity [25] 100% | residual activity [26] 78% | residual activity [27] 74% | residual activity [28] 79% | residual activity [29] 100% | residual activity [30] 92% | residual activity [31] 94% | residual activity [32] 100% | residual activity [33] 100% | residual activity [34] 100% | residual activity [35] 100% | residual activity [36] 98% | residual activity [37] 78% | residual activity [38] 100% | residual activity [39] 83% | residual activity [40] 100% | inhibition [41] 3.86% | residual activity [42] 89% | residual activity [43] 100% | residual activity [44] 93% | residual activity [45] 100%

Source: ChEMBL document CHEMBL4507280 (2021)
